Test results as given in patent publication US20150289512A1, “METHOD FOR PROMOTING PLANT GROWTH” (SUMITOMO CHEMICAL COMPANY, LIMITED, priority 2012, published 2015).

Experiments:
Nicotiana benthamiana = experiment: Test Example 4: growth promotion under low-temperature stress by hydroponics of Nicotiana benthamiana, 10 ppm; assay type: in vivo; conditions: 10 ppm in medium, low-temperature stress 7 days at 1.5±1.0° C., green leaf area 3 days later, equation (1)
Procedure, shortened: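 Nicotiana benthamiana grown 7 days at 22 °C in half-strength Murashige-Skoog medium, pH 5.8, with compound at 10 ppm (DMSO 1/1,000 v/v), chilled 7 days at 1.5±1.0 °C, recovered 3 days at 22 °C. Green leaf area expressed relative to stressed and unstressed DMSO controls; ≥5 scored as mitigating.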

[1] = tested on: Rice (variety: Nipponbare); experiment: Test Example 3: promotion of root growth by hydroponics of rice, 0.1 ppm; assay type: in vivo; conditions: Oryza sativa, hydroponic solution containing the test compound at 0.1 ppm, average of 4 or 5 individuals, read-out: Relative value of length of seminal root (%-untreated control plot)
Procedure, shortened: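 Surface-sterilised Nipponbare seeds were germinated 3 days in the dark at 28 °C in ¼-strength Hoagland solution containing 0.1 ppm compound; DMSO-only solution served as control. Seedlings were then grown 3 days hydroponically at 26 °C, 4,000 lux, 16 h day. Seminal root length was measured and averaged over 4–5 plants.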

Compound	relative leaf area at 10 ppm (Nicotiana benthamiana) [%]	change in vivo at 0.1 ppm [1] [%]
COC(=O)c1oc2ccccc2c1NC(=O)C(F)(F)F [Compound 39]	≥ 5	
COC(=O)c1cc2ccccc2o1 [Compound 1]	≥ 5	
O=C(O)c1oc2ccccc2c1C(F)(F)F [Compound 82]	≥ 5	
O=C(Nc1ccccc1)c1oc2ccc(C(F)(F)F)cc2c1C(F)(F)F [Compound 76]		> 5
COC(=O)c1oc2ccc(C(F)(F)F)cc2c1N(C(C)=O)C(C)=O [Compound 64]	≥ 5	> 5
COC(=O)c1oc2ccc(C(F)(F)F)cc2c1C [Compound 33]	≥ 5	> 5
COC(=O)c1oc2ccccc2c1NC(C)=O [Compound 40]	≥ 5	> 5
CCOC(=O)c1cc2c(C(F)(F)F)cccc2o1 [Compound 44]	≥ 5	> 5
Cc1c(C(=O)O)oc2ccccc12 [Compound 36]		> 5
CCOC(=O)c1oc2cccc(O)c2c1C [Compound 80]		> 5
NC(=O)c1oc2ccc(C(F)(F)F)cc2c1C(F)(F)F [Compound 74]	≥ 5	> 5
O=C(Oc1ccccc1)c1cc2cc(C(F)(F)F)ccc2o1 [Compound 55]	≥ 5	> 5
COC(=O)c1oc2ccc(C(F)(F)F)cc2c1N(C)C [Compound 62]	≥ 5	
COC(=O)c1oc2ccc(C(F)(F)F)cc2c1NC(=O)C(F)(F)F [Compound 65]	≥ 5	
COC(=O)c1oc2ccc(C(F)(F)F)cc2c1NS(=O)(=O)c1ccccc1 [Compound 68]		> 5
COC(=O)c1oc2ccccc2c1C(F)(F)F [Compound 83]	≥ 5	> 5
COC(=O)c1oc2ccc(C(F)(F)F)cc2c1O [Compound 50]		> 5
Cc1c(C(=O)O)oc2ccc(C(F)(F)F)cc12 [Compound 34]	≥ 5	> 5

Compound	relative leaf area at 10 ppm (Nicotiana benthamiana) [%]	change in vivo at 0.1 ppm [1] [%]
O=C(Nc1ccccc1)c1cc2cc(C(F)(F)F)ccc2o1 [Compound 53]	≥ 5	> 5
O=C(O)c1nc2c(F)cc(F)cc2s1 [Compound 86]	≥ 5	
O=C(OCc1ccccc1)c1cc2cc(C(F)(F)F)ccc2o1 [Compound 56]	≥ 5	> 5
O=C(OCc1ccccc1)c1oc2ccc(C(F)(F)F)cc2c1C(F)(F)F [Compound 73]	≥ 5	> 5
CNC(=O)c1oc2ccc(C(F)(F)F)cc2c1C(F)(F)F [Compound 75]	≥ 5	> 5
COC(=O)c1oc2ccc(C(F)(F)F)cc2c1NS(C)(=O)=O [Compound 67]	≥ 5	> 5
CCOC(=O)c1oc2ccc(C(F)(F)F)cc2c1C(F)(F)F [Compound 71]	≥ 5	> 5
O=C(O)c1oc2ccc(C(F)(F)F)cc2c1C(F)(F)F [Compound 69]	≥ 5	
COC(=O)c1oc2ccccc2c1C [Compound 37]		> 5
O=C(O)c1cc2cc(Br)ccc2o1 [Compound 79]	≥ 5	> 5
O=C(O)c1cc2c(C(F)(F)F)cccc2o1 [Compound 43]	≥ 5	> 5
COC(=O)c1cc2c(C(F)(F)F)cccc2o1 [Compound 45]		> 5
O=C(NCc1ccccc1)c1oc2ccc(C(F)(F)F)cc2c1C(F)(F)F [Compound 77]	≥ 5	
COC(=O)c1oc2ccc(C(F)(F)F)cc2c1NC(C)=O [Compound 63]	≥ 5	
O=C(NCc1ccccc1)c1cc2cc(C(F)(F)F)ccc2o1 [Compound 54]	≥ 5	> 5
COC(=O)c1oc2ccccc2c1N(C(C)=O)C(C)=O [Compound 41]	≥ 5	> 5
NC(=O)c1cc2cc(C(F)(F)F)ccc2o1 [Compound 51]	≥ 5	> 5
CNC(=O)c1cc2cc(C(F)(F)F)ccc2o1 [Compound 52]		> 5
